The source of these data is PubChem BioAssay (NCI).

Holding throughout (assay): NCI tumour cell line growth inhibition, 48 h
In assay [1] the test system is DMS 114 small cell lung.
Assay [2] concerns HOP-18 NSCLC.
In assay [3] the test system is NCI-H522 lung.
Assay [4] concerns M19-MEL melanoma.
Assay [5] concerns XF 498 CNS.
In assay [6] the test system is DLD-1 colon.
Assay [7] relates to SNB-78 CNS.
The test system of assay [8] is LXFL 529 NSCLC.
For assay [9], the system named is P388 leukemia.
The subject of assay [10] is SR leukemia.
In assay [11] the test system is M14 melanoma.
In assay [12] the test system is MDA-MB-231 breast.
Assay [13] deals with DU-145 prostate.
Assay [14] deals with MDA-N.
The subject of assay [15] is T-47D breast.
Assay [16] relates to BT-549 breast.

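Grown in 96-well plates, cells were treated for 48 hours with each compound at five concentrations. Insufficient inhibition: endpoint recorded as highest concentration tested. GI50: concentration for 50% inhibition of growth. At the TGI there is no net growth.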

Consider `CC(c1ccccc1)/[N+]([O-])=C/c1ccccc1` (configuration not stated), for which the TGI in assay [1], in [2], in assay [3], in assay [4], in [5] and in assay [6] was above 100 µM in each case. In addition, the TGI in [7] and in [8] was above 100 µM in each case.
Take `CC1OC1C(=O)C1(O)C(C)C(O)C23OC2(C(O)c2c(O)cccc2C3=O)C1O` (configuration not stated): the TGI in assay [9] worked out at 0.345 µM; in [1] it was 0.191 µM; in [2] it was 0.489 µM; in assay [3] it was 0.338 µM; in assay [4], 0.526 µM; in assay [5], 0.961 µM. Also, the TGI was found to be 1.7 µM in assay [6] and 3.46 µM in assay [7].
For `CN1CCN(c2cc(-c3cc4ccccc4o3)oc(=O)c2C#N)CC1`, the TGI in [1], in [10], in assay [11], in assay [5], in [6] and in assay [7] was above 100 µM each time. In addition, the TGI in assay [8] is above 100 µM.
For `O=C(NN1C(=O)CSC1c1ccc(C(F)(F)F)cc1)c1ccncc1` (configuration not stated), the TGI in assay [9], in assay [1], in [2], in [3], in assay [4] and in [5] was above 100 µM in each case. Moreover, the TGI was above 100 µM in assay [6] and above 31.6 µM in assay [7].
Regarding `O=C(O)CC1OCC=C2CN3CCC45C6=CC(=O)C(=O)C([N+](=O)[O-])=C6NC4C1C2CC35` (configuration not stated), the TGI in assay [12], in assay [13], in assay [3], in [14], in assay [11] and in [15] was above 100 µM throughout. Moreover, the TGI in [16] was above 100 µM.
For `C[C@]12CCc3sc(Nc4ccc(O)cc4)nc3C1=CC[C@@H]1[C@@H]2CC[C@]2(C)C(=O)CC[C@@H]12`, the GI50 in assay [10] was 2.72 µM; in assay [3], 1.42 µM; in assay [15] it was 1.95 µM; in [16] it was 3.13 µM. The TGI in [10] is above 100 µM; in assay [3] it was 2.96 µM; in assay [15] it was 5.03 µM; in assay [16], above 100 µM.
Take `CC(CCC(=O)O)C1CCC2C3C(O)CC4CC(O)CCC4(C)C3CC(O)C12C` (configuration not stated): the TGI in assay [12], in assay [10], in [13], in assay [3], in assay [14] and in assay [11] was above 100 µM each time. Further, the TGI in assay [15] and in assay [16] was above 100 µM throughout.
For `O=C(O)CC1(CC(=O)O)Nc2ccccc2SC1=O`, the TGI in [12], in [10], in assay [13], in [3], in assay [14] and in assay [11] was above 100 µM throughout. The TGI in [15] and in assay [16] was above 100 µM throughout.
With `C/C(=N\NC(=S)Nc1ccc(C)cc1)c1nc2ncccc2[nH]1`, the TGI in [12] was above 100 µM; in [10], above 100 µM; in assay [13], 13.6 µM; in assay [14], 23.8 µM; in assay [15], 18 µM; in [16], 11.8 µM.
On to `COc1ccc(-c2c3c(nc4nc(SC)nc(SC)c24)CCCC3)cc1OC`, for which the TGI in [12] is above 100 µM; in assay [10], 46.4 µM; in [13] it was above 100 µM; in assay [3], above 100 µM; in [14] it was above 100 µM; in assay [11] it was above 100 µM. In addition, the TGI in [15] and in assay [16] was above 100 µM in each case.
Consider `CCSc1nc(=[N+]2CCCC2)ss1`, for which the TGI in assay [1] is 55.5 µM; in assay [12] it was above 100 µM; in [13], above 100 µM; in [2], above 100 µM; in assay [3], above 100 µM; in [14], above 100 µM. Also, the TGI in assay [11] was above 100 µM; in assay [4], 27.3 µM; in assay [5] it was above 77.9 µM; in assay [6] it was above 100 µM; in assay [7], above 100 µM; in assay [8], above 100 µM. The same molecule displayed a TGI in assay [16] of 95.9 µM.
Turning to `COc1cc2c(cc1OC)C(C)N(C)c1c-2c(OC(C)=O)cc2cc(OC)c(OC)cc12` (configuration not stated), the TGI in assay [12] amounted to 27.9 µM; in assay [13], 40.8 µM; in [3] it was 19.2 µM; in assay [14], 38.3 µM; in assay [11], 28.2 µM; in assay [15], 24.1 µM. Further, in [16], the TGI came to 47.1 µM.
For `O=C1OCC/C1=C/c1ccc(N=Nc2c(O)ccc3ccccc23)cc1`, the TGI in assay [12] was above 100 µM; in [10], 37.5 µM; in assay [13], 36.6 µM; in [3] it was 41.8 µM; in assay [14], 33.5 µM; in assay [11] it was 66.3 µM. For the same molecule, the TGI in [15] was above 100 µM; in assay [16], 49.9 µM.
Consider `NC(=S)N/N=C1\c2ccccc2CCC1CCC1(O)CCc2ccccc2C1=O` (configuration not stated), for which the TGI is above 100 µM in [12]; above 100 µM in [10]; above 100 µM in assay [13]; 58.4 µM in assay [14]; 38 µM in assay [11]; 28.9 µM in [15]. Further, the TGI in assay [16] was 31.6 µM.
Regarding `CCc1nnc(-c2nsc3ccccc23)s1`, the TGI in assay [1], in [10], in assay [2], in assay [11], in assay [7] and in assay [8] was above 100 µM in each case.
